Measurements from US20100240040A1, “METHOD FOR SCREENING FOR SELECTIVE MODULATOR OF THE NF-KB PATHWAY ACTIVATION” (INSTITUT PASTEUR, priority 2007, published 2010).
Where a SMILES comes first, the peptide text is derived from it.

What was measured:
Flag-NEMO = target: T1, Flag-NEMO (Mus musculus, UniProt O88522, A144V/E216G/P360T/S248N); assay: Pull-down of Flag-NEMO from JM4.5.2/Flag-NEMO cells treated with Bodipy-conjugated peptides, bead fluorescence; type: cell-based, murine; details: 20 μM peptide, 4 h
T1 construct: expressed in transfected cells
Method: 5·10^6 JM4.5.2/Flag-NEMO cells were seeded in 6-well plates (3 ml/well) and incubated with 20 μM of Bodipy-conjugated peptides (BA-NLM or BA-DR NLM) for 4 h at 37° C. Cells were centrifuged at 400×g for 5 min, resuspended in 200 μl of an hypotonic buffer (10 mM TrisHCl pH 7.9, 1.5 mM MgCl2, 10 mM KCl), left on ice for 20 min and lysed by several passage through a 26 G needle. Lysates were clarified at 15 000×g for 20 min and 80 μg of total proteins were incubated with 40 μl of agarose anti-Flag M2 beads for 1 h at 4° C. The Flag-NEMO protein were pulled down with the agarose anti-Flag M2 beads by centrifugation for 1 min. Beads were resuspended in 100 μl of hypotonic buffer and the fluorescence of NEMO linked peptide was read on microplate reader from SAFAS. NEMO coated beads were analyzed by Western blotting using anti-Flag M2 monoclonal antibodies to normalize the sample using the UN-SCAN-IT software. […]

NF-AT pathway = assay: NF-AT-luc reporter assay in Jurkat cells stimulated with PMA and ionomycin; type: cell-based, human; details: 5 μM peptide, T-lymphocytes
Method: (§1) Jurkat T cells (clone 20) were transiently transfected by a DEAE-dextran method with a reporter plasmid containing the luciferase under the control of a promoter inducible by the ERK and p38 pathway (SRE-luc; Courtois et al., 1997, Mol. Cell. Biol, 17:1441-1449), the NF-AT pathway or the API pathway (respectively NF-AT-luc and AP1-luc; Northrop et al., 1993, J. Biol. […]., 268:2917-2923). Briefly, cells were washed and resuspended at 10^7 cells/ml in TBS containing 0.5 mg/ml of DEAE-dextran (Pharmacia). 1 μg per 2·10^6 cells of reporter plasmid was added. After 45 min at room temperature, the cells were diluted with 10 volumes of TBS, centrifuged, and resuspended at 10^6 cells/ml in 10% FCS-RPMI. After 24 h, cells were incubated with or without 5 μM NEMO-derived peptides (BA-NLM or BA-DR NLM) for 2 h. They were stimulated or mock-stimulated with 100 ng/ml PMA and 1 μg/ml ionomycin for 5 h, and finally lysed in luciferase buffer (25 mM Tris-phosphate pH 7.8 containing 8 mM MgCl2, 1 mM DTE, 1% Triton X100, 15% glycerol). Luciferase measurement was carried out in a Berthold Luminometer.

ERK and p38 pathway = assay: SRE-luc reporter assay in Jurkat cells stimulated with PMA and ionomycin; type: cell-based, human; details: 5 μM peptide, T-lymphocytes
Method: as §1

[1] = target: T2, Lys63-linked polyubiquitin chains (Homo sapiens, UniProt P0CG47); assay: In vitro binding assay by fluorescence polarization to polyubiquitin chains; details: tag-free peptide
T2 construct: the Lys63-linked polyubiquitin chains; purchased Boston Biochem

NF-κB pathway = assay: NF-κB inhibition assay (β-galactosidase reporter) in 70Z/3-C3 cells; type: cell-based; details: pre-B 70Z3 lymphocytes activated with PMA, IL-1 or LPS; similar for the stimuli; read-out: IC50 of inhibition of the NF-kB pathway
Method: 4.5×10^5 70Z/3-C3 cells in 450 μl of 10% FCS-RPMI (Invitrogen) were incubated with 0-20 μM peptide BA-DR NLM or BA-NLM. After 2 h at 37° C., 200 μl of cell samples were transferred in duplicate to a 96-well micro titer plate. One well was treated for 4 h with either 15 μg/ml LPS, 20 ng/ml IL1-β or 100 ng/ml PMA. A control well was left untreated. After 4 h at 37° C., cells were centrifuged at 400×g for 5 min at room temperature, the pellets were washed three times with cold PBS (200 μl), and the cells were lysed in 100 μl of lysis buffer (25 mM tris-phosphate buffer at pH7.8 containing 8 mM MgCl2, 1 mM dithioerythreitol, 1% Triton X-100, 15% glycerol and a protease inhibitor mixture (Roche Applied Science, ref. 1836145)). The lysate was centrifuged at 1000×g for 20 min at 4° C., and supernatant was kept on ice before performing the β-galactosidase assay. β-galactosidase assays were performed on 50 μl of the supernatant and in an assay mix containing 4 μl of Galacton-star chemiluminescent substrate and 196 μl of reaction buffer (Clonetech). The activity was measured with a plate luminometer (Berthold).

AP1 pathway = assay: AP1-luc reporter assay in Jurkat cells stimulated with PMA and ionomycin; type: cell-based, human; details: 5 μM peptide, T-lymphocytes
Method: as §1

spCC2-LZ (MOD of NEMO) = target: T3, spCC2-LZ (MOD of NEMO) (Mus musculus, UniProt O88522); assay: Fluorescence anisotropy binding of labelled peptide to spCC2-LZ; details: labelled peptide 10 μM, increasing spCC2-LZ; read-out: dissociation constant for spCC2-LZ
T3 construct: spCC2-LZ, synthetic polypeptide subdomain CC2-LZ; made in house; host or cells: chemical synthesis
Method: Anisotropy measurements were performed with a QuantaMaster® fluorometer (PTI), equipped with polarizing filters for excitation and emission, and using a photomultiplier tube in the L-configuration. All experiments were carried out in a microcuvette (60 μl) at 22° C., with excitation and emission wavelengths at 495 and 513 nm. The band pass of the excitation and emission wavelengths was 2 and 4 nm, respectively. Steady-state fluorescence anisotropy, expressed as millianisotropy units was measured as described Agou et al., 2004a. All measurements were carried out in a 20 mM isoionic buffer pH 8 (10 mM acetic acide, 10 mM MES, 20 mM Tris), containing 20 mM KCl. Each data point is the result of 20 recording taken over a 2-min period. To analyse whether DR NLM binds the MOD of NEMO, fluorescent labelled BA-DR NLM (10 μM) was incubated with an increasing concentrations of spCC2-LZ and the complex formation was monitored by fluorescence polarization (P) and results are expressed as anisotropy (A) according to the formula A=2P/(3-P). The concentration of spCC2-LZ was determining by amino acid analysis (Vinolo et al; 2006). Data points were fitted to the binding isotherm equation which gives a dissociation constant of 17 μM.

T3 sequence (O88522 253-336): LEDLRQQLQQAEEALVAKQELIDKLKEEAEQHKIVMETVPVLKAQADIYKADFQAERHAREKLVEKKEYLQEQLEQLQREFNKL
T1 sequence (O88522 with tags, fused parts or gaps A144V/E216G/S248N/P360T): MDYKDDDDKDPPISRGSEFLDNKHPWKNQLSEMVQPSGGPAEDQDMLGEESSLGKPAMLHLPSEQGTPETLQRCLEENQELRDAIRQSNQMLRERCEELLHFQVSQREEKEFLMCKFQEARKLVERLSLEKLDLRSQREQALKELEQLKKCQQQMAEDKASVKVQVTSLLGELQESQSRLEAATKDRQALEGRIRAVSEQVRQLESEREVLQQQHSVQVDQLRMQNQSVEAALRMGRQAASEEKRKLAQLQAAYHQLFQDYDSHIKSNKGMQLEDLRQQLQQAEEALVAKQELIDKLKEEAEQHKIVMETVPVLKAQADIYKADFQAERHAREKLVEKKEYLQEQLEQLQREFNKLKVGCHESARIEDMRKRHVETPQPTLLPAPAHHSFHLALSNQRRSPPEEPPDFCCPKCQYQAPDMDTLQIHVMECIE

peptide bound to NEMO in cells (bead fluorescence) (Flag-NEMO): binds specifically to NEMO
cooperativity index (Hill coefficient) n [1]: 1
Kd ([1]; read-out: dissociation constant for Lys63-linked polyubiquitin chains): 250 µM
IC50 (NF-κB pathway): 0.9 µM
Kd (spCC2-LZ (MOD of NEMO)): 17 µM
SMILES: CC[C@H](C)[C@H](NC(=O)[C@H](CC(=O)O)NC(=O)[C@H](C)NC(=O)[C@H](CCC(N)=O)NC(=O)[C@H](C)NC(=O)[C@H](CCCCN)NC(=O)[C@H](CC(C)C)NC(C)=O)C(=O)N[C@@H](Cc1ccc(O)cc1)C(=O)N[C@@H](CCCCN)C(=O)N[C@@H](C)C(=O)N[C@@H](CCCNC(=N)N)C(=O)N[C@@H](Cc1ccccc1)C(=O)N[C@@H](CCC(N)=O)C(=O)N[C@@H](C)C(=O)N[C@@H](CCC(=O)O)C(=O)N[C@@H](CCCNC(=N)N)C(=O)N[C@@H](Cc1c[nH]cn1)C(=O)N[C@@H](C)C(=O)N[C@@H](CCCNC(=N)N)C(=O)N[C@@H](CCC(=O)O)C(=O)N[C@@H](CCCCN)C(N)=O [DR NLM] (Ac-LKAQADIYKARFQAERHAREK-NH2; N-terminus and C-terminus assumed)
effect on NF-AT pathway (NF-AT pathway): does not abrogate
effect on ERK and p38 pathways (ERK and p38 pathway): does not abrogate
effect on AP1 pathway (AP1 pathway): does not abrogate
